According to ChEMBL document CHEMBL4308841, “Synthesis, in vitro antiproliferative activity, and kinase inhibitory effects of pyrazole-containing diarylureas and diarylamides” (Eur J Med Chem, 2018):

Columns and labels:
HT-29 [1] = test: Growth inhibition of human HT-29 cells assessed as cell growth at 10 uM incubated for 48 hrs by sulforhodamine B assay relative to control; type: functional; conditions: HT-29, 48 h, read-out: Activity
CCRF-CEM = test: Growth inhibition of human CCRF-CEM cells incubated for 48 hrs by sulforhodamine B assay; type: functional, cell-based
HOP-62 = test: Growth inhibition of human HOP62 cells incubated for 48 hrs by sulforhodamine B assay; type: functional, cell-based; conditions: HOP-62, 48 h
NCI-H23 = test: Growth inhibition of human NCI-H23 cells incubated for 48 hrs by sulforhodamine B assay; type: functional, cell-based; conditions: NCI-H23, 48 h
NCI-H460 = test: Growth inhibition of human NCI-H460 cells incubated for 48 hrs by sulforhodamine B assay; type: functional, cell-based; conditions: NCI-H460, 48 h
SW-620 = test: Growth inhibition of human SW620 cells incubated for 48 hrs by sulforhodamine B assay; type: functional, cell-based; conditions: SW-620, 48 h
M14 = test: Growth inhibition of human M14 cells incubated for 48 hrs by sulforhodamine B assay; type: functional, cell-based; conditions: M14, 48 h
SK-MEL-5 = test: Growth inhibition of human SK-MEL-5 cells incubated for 48 hrs by sulforhodamine B assay; type: functional, cell-based; conditions: SK-MEL-5, 48 h
SF-539 [2] = test: Growth inhibition of human SF539 cells assessed as cell growth at 0.01 uM incubated for 48 hrs by sulforhodamine B assay relative to control; type: functional; conditions: SF-539, 48 h, read-out: Activity
SK-MEL-28 = test: Growth inhibition of human SK-MEL-28 cells assessed as cell growth at 0.01 uM incubated for 48 hrs by sulforhodamine B assay relative to control; type: functional; conditions: SK-MEL-28, 48 h, read-out: Activity
OVCAR-4 [3] = test: Growth inhibition of human OVCAR4 cells assessed as cell growth at 0.01 uM incubated for 48 hrs by sulforhodamine B assay relative to control; type: functional; conditions: OVCAR-4, 48 h, read-out: Activity
NCI-H522 = test: Growth inhibition of human NCI-H522 cells assessed as cell growth at 0.1 uM incubated for 48 hrs by sulforhodamine B assay relative to control; type: functional; conditions: NCI-H522, 48 h, read-out: Activity
COLO 205 = test: Growth inhibition of human COLO205 cells assessed as cell growth at 0.1 uM incubated for 48 hrs by sulforhodamine B assay relative to control; type: functional; conditions: COLO 205, 48 h, read-out: Activity
HT-29 [4] = test: Growth inhibition of human HT-29 cells assessed as cell growth at 0.1 uM incubated for 48 hrs by sulforhodamine B assay relative to control; type: functional; conditions: HT-29, 48 h, read-out: Activity
SF-539 [5] = test: Growth inhibition of human SF539 cells assessed as cell growth at 0.1 uM incubated for 48 hrs by sulforhodamine B assay relative to control; type: functional; conditions: SF-539, 48 h, read-out: Activity
Malme-3M = test: Growth inhibition of human MALME-3M cells assessed as cell growth at 0.1 uM incubated for 48 hrs by sulforhodamine B assay relative to control; type: functional; conditions: read-out: Activity
UACC-257 = test: Growth inhibition of human UACC257 cells assessed as cell growth at 0.1 uM incubated for 48 hrs by sulforhodamine B assay relative to control; type: functional; conditions: UACC-257, 48 h, read-out: Activity
OVCAR-4 [6] = test: Growth inhibition of human OVCAR4 cells assessed as cell growth at 0.1 uM incubated for 48 hrs by sulforhodamine B assay relative to control; type: functional; conditions: OVCAR-4, 48 h, read-out: Activity
OVCAR-5 = test: Growth inhibition of human OVCAR5 cells assessed as cell growth at 0.1 uM incubated for 48 hrs by sulforhodamine B assay relative to control; type: functional; conditions: OVCAR-5, 48 h, read-out: Activity
CAKI-1 = test: Growth inhibition of human Caki1 cells assessed as cell growth at 0.1 uM incubated for 48 hrs by sulforhodamine B assay relative to control; type: functional; conditions: CAKI-1, 48 h, read-out: Activity
PC-3 = test: Growth inhibition of human PC3 cells assessed as cell growth at 0.1 uM incubated for 48 hrs by sulforhodamine B assay relative to control; type: functional; conditions: PC-3, 48 h, read-out: Activity
A549 = test: Growth inhibition of human A549/ATCC cells assessed as cell growth at 1 uM incubated for 48 hrs by sulforhodamine B assay relative to control; type: functional; conditions: A549, 48 h, read-out: Activity
HCC 2998 [7] = test: Growth inhibition of human HCC2998 cells assessed as cell growth at 1 uM incubated for 48 hrs by sulforhodamine B assay relative to control; type: functional; conditions: HCC 2998, 48 h, read-out: Activity
T47D = test: Growth inhibition of human T47D cells assessed as cell growth at 1 uM incubated for 48 hrs by sulforhodamine B assay relative to control; type: functional; conditions: read-out: Activity
NCI-H322M = test: Growth inhibition of human NCI-H322M cells assessed as cell growth at 100 uM incubated for 48 hrs by sulforhodamine B assay relative to control; type: functional; conditions: read-out: Activity
HCC 2998 [8] = test: Growth inhibition of human HCC2998 cells assessed as cell growth at 100 uM incubated for 48 hrs by sulforhodamine B assay relative to control; type: functional; conditions: HCC 2998, 48 h, read-out: Activity
U-251 = test: Growth inhibition of human U251 cells assessed as cell growth at 100 uM incubated for 48 hrs by sulforhodamine B assay relative to control; type: functional; conditions: U-251, 48 h, read-out: Activity
DU-145 = test: Growth inhibition of human DU145 cells assessed as cell growth at 100 uM incubated for 48 hrs by sulforhodamine B assay relative to control; type: functional; conditions: DU-145, 48 h, read-out: Activity
MDA-MB-231 = test: Growth inhibition of human MDA-MB-231 cells assessed as cell growth at 100 uM incubated for 48 hrs by sulforhodamine B assay relative to control; type: functional; conditions: MDA-MB-231, 48 h, read-out: Activity
[9] = read-out: LC50 (the source's name)
[10] = read-out: pLC50 (the source's name) (converted)

Q: `COc1cc(Cl)cc(-c2nn(-c3cccc(NC(=O)Nc4cc(C(F)(F)F)cc(C(F)(F)F)c4)c3)cc2-c2ccncc2)c1` was tested. Which growth at 10 µM (HT-29 [1]) did it give?
A: Its growth at 10 µM is 3.93%.

Q: And the IC50 (CCRF-CEM)?
A: The IC50 was 270 nM.

Q: And the GI50 (CCRF-CEM; read-out: GI50)?
A: Its GI50 is 273 nM.

Q: And the CC50 (CCRF-CEM; [9])?
A: Its CC50 is over 100000 nM.

Q: What about the TGI (CCRF-CEM; read-out: TGI) of the same compound?
A: Its TGI is 1330 nM.

Q: And the GI50 (CCRF-CEM; read-out: pGI50 (converted))?
A: Its GI50 is 275 nM.

Q: What about the CC50 (CCRF-CEM; [10]) of the same compound?
A: The CC50 was over 100000 nM.

Q: And the TGI (CCRF-CEM; read-out: pTGI (converted))?
A: Its TGI is 1350 nM.

Q: What about the IC50 (HOP-62) of the same compound?
A: Its IC50 is 650 nM.

Q: What about the GI50 (HOP-62; read-out: GI50) of the same compound?
A: Its GI50 is 648 nM.

Q: What about the CC50 (HOP-62; [9]) of the same compound?
A: Its CC50 is 7140 nM.

Q: And the TGI (HOP-62; read-out: TGI)?
A: Its TGI is 2390 nM.

Q: And the GI50 (HOP-62; read-out: pGI50 (converted))?
A: Its GI50 is 646 nM.

Q: What about the CC50 (HOP-62; [10]) of the same compound?
A: Its CC50 is 7080 nM.

Q: What about the TGI (HOP-62; read-out: pTGI (converted)) of the same compound?
A: The TGI was 2400 nM.

Q: What about the IC50 (NCI-H23) of the same compound?
A: Its IC50 is 330 nM.

Q: And the GI50 (NCI-H23; read-out: GI50)?
A: Its GI50 is 328 nM.

Q: What about the LC50 (NCI-H23; read-out: LC50) of the same compound?
A: Its LC50 is 50 nM.

Q: And the TGI (NCI-H23; read-out: TGI)?
A: Its TGI is 1600 nM.

Q: What about the GI50 (NCI-H23; read-out: pGI50 (converted)) of the same compound?
A: Its GI50 is 331 nM.

Q: What about the LC50 (NCI-H23; read-out: pLC50 (converted)) of the same compound?
A: The LC50 was 50100 nM.

Q: What about the TGI (NCI-H23; read-out: pTGI (converted)) of the same compound?
A: Its TGI is 1580 nM.

Q: And the IC50 (NCI-H460)?
A: Its IC50 is 380 nM.

Q: And the GI50 (NCI-H460; read-out: GI50)?
A: The GI50 was 377 nM.

Q: What about the TGI (NCI-H460; read-out: TGI) of the same compound?
A: Its TGI is 1760 nM.

Q: What about the GI50 (NCI-H460; read-out: pGI50 (converted)) of the same compound?
A: Its GI50 is 380 nM.

Q: What about the CC50 (NCI-H460; [10]) of the same compound?
A: Its CC50 is 17400 nM.

Q: And the TGI (NCI-H460; read-out: pTGI (converted))?
A: Its TGI is 1780 nM.

Q: What about the IC50 (SW-620) of the same compound?
A: The IC50 was 390 nM.

Q: What about the GI50 (SW-620; read-out: GI50) of the same compound?
A: The GI50 was 300 nM.

Q: What about the LC50 (SW-620; read-out: LC50) of the same compound?
A: The LC50 was 15 nM.

Q: And the TGI (SW-620; read-out: TGI)?
A: Its TGI is 2000 nM.

Q: And the GI50 (SW-620; read-out: pGI50 (converted))?
A: Its GI50 is 389 nM.

Q: What about the LC50 (SW-620; read-out: pLC50 (converted)) of the same compound?
A: The LC50 was 15100 nM.

Q: What about the TGI (SW-620; read-out: pTGI (converted)) of the same compound?
A: The TGI was 2000 nM.

Q: And the IC50 (M14)?
A: Its IC50 is 440 nM.

Q: What about the GI50 (M14; read-out: GI50) of the same compound?
A: Its GI50 is 442 nM.

Q: What about the CC50 (M14; [9]) of the same compound?
A: The CC50 was 93.9 nM.

Q: What about the TGI (M14; read-out: TGI) of the same compound?
A: The TGI was 2160 nM.

Q: And the GI50 (M14; read-out: pGI50 (converted))?
A: The GI50 was 447 nM.

Q: And the CC50 (M14; [10])?
A: The CC50 was 9330 nM.

Q: What about the TGI (M14; read-out: pTGI (converted)) of the same compound?
A: Its TGI is 2140 nM.

Q: What about the IC50 (SK-MEL-5) of the same compound?
A: Its IC50 is 1140 nM.

Q: And the GI50 (SK-MEL-5; read-out: GI50)?
A: The GI50 was 1140 nM.

Q: And the CC50 (SK-MEL-5; [9])?
A: The CC50 was 50.4 nM.

Q: And the TGI (SK-MEL-5; read-out: TGI)?
A: The TGI was 2390 nM.

Q: What about the GI50 (SK-MEL-5; read-out: pGI50 (converted)) of the same compound?
A: Its GI50 is 1150 nM.

Q: And the CC50 (SK-MEL-5; [10])?
A: The CC50 was 5010 nM.

Q: And the TGI (SK-MEL-5; read-out: pTGI (converted))?
A: Its TGI is 2400 nM.

Q: And the growth at 0.01 µM (SF-539 [2])?
A: Its growth at 0.01 µM is 100%.

Q: What about the growth at 0.01 µM (SK-MEL-28) of the same compound?
A: Its growth at 0.01 µM is 103%.

Q: And the growth at 0.01 µM (OVCAR-4 [3])?
A: Its growth at 0.01 µM is 93%.

Q: What about the growth at 0.1 µM (NCI-H522) of the same compound?
A: Its growth at 0.1 µM is 80%.

Q: What about the growth at 0.1 µM (COLO 205) of the same compound?
A: The growth at 0.1 µM was 98%.

Q: And the growth at 0.1 µM (HT-29 [4])?
A: Its growth at 0.1 µM is 101%.

Q: And the growth at 0.1 µM (SF-539 [5])?
A: The growth at 0.1 µM was 102%.

Q: And the growth at 0.1 µM (Malme-3M)?
A: Its growth at 0.1 µM is 87%.

Q: And the growth at 0.1 µM (UACC-257)?
A: Its growth at 0.1 µM is 94%.

Q: And the growth at 0.1 µM (OVCAR-4 [6])?
A: The growth at 0.1 µM was 97%.

Q: What about the growth at 0.1 µM (OVCAR-5) of the same compound?
A: The growth at 0.1 µM was 95%.

Q: And the growth at 0.1 µM (CAKI-1)?
A: Its growth at 0.1 µM is 95%.

Q: And the growth at 0.1 µM (PC-3)?
A: The growth at 0.1 µM was 91%.

Q: And the growth at 1 µM (A549)?
A: Its growth at 1 µM is 15%.

Q: What about the growth at 1 µM (HCC 2998 [7]) of the same compound?
A: Its growth at 1 µM is 38%.

Q: What about the growth at 1 µM (T47D) of the same compound?
A: The growth at 1 µM was 15%.

Q: And the growth at 100 µM (NCI-H322M)?
A: Its growth at 100 µM is -78%.

Q: What about the growth at 100 µM (HCC 2998 [8]) of the same compound?
A: The growth at 100 µM was -70%.

Q: What about the growth at 100 µM (U-251) of the same compound?
A: The growth at 100 µM was -92%.

Q: And the growth at 100 µM (DU-145)?
A: The growth at 100 µM was -58%.

Q: And the growth at 100 µM (MDA-MB-231)?
A: The growth at 100 µM was -70%.
